Results from PMC4980431, “Ctf4 Is a Hub in the Eukaryotic Replisome that Links Multiple CIP-Box Proteins to the CMG Helicase” (Molecular Cell, 2016).

Tests used:
Ctf4 471-927 (Ctf4CTD) [1] = molecular target: T1, Ctf4 471-927 (Ctf4CTD) (Saccharomyces cerevisiae, UniProt Q01454); conditions: isolated CIP-boxes; quoted in Discussion; ref Simon et al., 2014; read-out: affinity constant Kd; cited from earlier work
T1 sequence (Q01454 471-927): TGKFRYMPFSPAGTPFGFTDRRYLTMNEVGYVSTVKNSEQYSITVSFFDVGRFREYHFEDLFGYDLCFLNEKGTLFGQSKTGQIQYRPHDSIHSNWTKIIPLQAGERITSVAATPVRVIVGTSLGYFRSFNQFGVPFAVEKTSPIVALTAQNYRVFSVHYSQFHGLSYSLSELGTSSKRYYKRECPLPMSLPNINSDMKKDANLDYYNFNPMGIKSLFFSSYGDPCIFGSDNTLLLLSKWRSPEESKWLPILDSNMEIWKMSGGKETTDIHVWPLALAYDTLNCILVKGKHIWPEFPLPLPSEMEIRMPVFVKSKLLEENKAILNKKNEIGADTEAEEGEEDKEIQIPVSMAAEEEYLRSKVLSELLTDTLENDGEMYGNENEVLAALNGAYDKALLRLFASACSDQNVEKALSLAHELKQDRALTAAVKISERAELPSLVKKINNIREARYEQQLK
From the text: The way that CIP-box proteins compete with each other for binding to Ctf4 remains an interesting issue for future investigation.

Ctf4 471-927 (Ctf4CTD) [2] = molecular target: T1, Ctf4 471-927 (Ctf4CTD); experiment: Fluorescence anisotropy, peptide binding to Ctf4 471-927; set-up: species or system budding yeast; conditions: 40 nM fluorescein-labeled Tof2 peptide, pH 7.2, 25°C, single measurement
Description: The lowest concentration of peptide at which the binding studies could be performed was determined via peptide calibration curves. Fluorescence anisotropy measurements were recorded in a PHERAstar Plus multi-detection plate reader (BMG Labtech) equipped with fluorescence polarization optic module (λex = 485 nm; λem = 520 nm) at 25°C. Each data point is the mean of 200 flashes/well. The voltage gain was set by adjusting the target mP values of fluorescein-labeled peptides relative to that of fluorescein (35 mP). Serial dilutions of Ctf4CTD were made in 20 mM HEPES (pH 7.2), 140 mM KCl, and 5% (w/v) glycerol in the presence of 40 nM (Sld5 and Tof2) or 50 nM (Dna2) fluorescein-labeled peptide. For Dna2 peptide, each data point is the mean of three independent experiments and curve fitting to the experimental data was performed in pro Fit 6.2 (QuantumSoft) using a Levenberg-Marquardt fitting algorithm in combination with a Gaussian error distribution analysis.

Ctf4 471–927 = experiment: Native mass spectrometry; assay type: binding, budding yeast; conditions: for direct binding to Ctf4 (in words): 500 mM ammonium acetate, 5-fold or 10-fold molar excess of peptide, 100 μM protein, minimum 30 min
Description: In preparation for non-denaturing nano-electrospray ionization mass spectrometry (native mass spectrometry), Ctf4 471–927 was subjected to two successive rounds of buffer exchange into 500 mM ammonium acetate using illustra NAP-5 columns (GE Healthcare). Following buffer exchange, a 5-fold or 10-fold molar excess of Dna2 peptide 207- […] -223 or Tof2 peptide 497- […] -517 solubilized in 500 mM ammonium acetate was mixed with Ctf4CTD at a final protein concentration of 100 μM and incubated for a minimum of 30 min. Native mass spectra were recorded on a Synapt HDMS instrument (Waters) and calibrated using caesium iodide (100 mg ml^−1) as described previously ([Hernández and Robinson, 2007], [Simon et al., 2014]).

Ctf4 471–927 (Ctf4CTD) = experiment: GST pull-down; assay type: binding, budding yeast; conditions: GST fusion on Glutathione Sepharose; Ctf4CTD 2 mg/ml, 1 hr 4°C; SDS-PAGE
Description: For each Dna2 construct to be tested for interaction with Ctf4CTD, a 25-ml E. coli Rosetta2 (DE3) culture overexpressing the GST-fusion construct was pelleted, resuspended in buffer (50 mM Tris [pH 7.0], 500 mM NaCl, 10% [w/v] glycerol, 1 mM DTT, and protease inhibitors) (Sigma), and lysed by sonication. Following centrifugation, the soluble extract was mixed with 50 μl of Glutathione Sepharose beads (GE Healthcare) pre-equilibrated in the same buffer, and incubated under rotation at 4°C for 1 hr. Unbound protein was removed by three consecutive washes with 1 ml of buffer, followed by three 1-ml washes with pull-down buffer (20 mM HEPES [pH 7.2], 150 mM NaCl, 5% [w/v] glycerol, 0.1% Igepal CA-630, 1 mM TCEP, and 1% BSA). Subsequently, 500 μl of purified Ctf4CTD protein at a concentration of 2 mg/ml was added to the Sepharose beads and binding was allowed to take place for an additional 1 hr at 4°C. The binding reaction was stopped by two consecutive washes with 1 ml of pull-down buffer and a final 1 ml wash with pull-down buffer without BSA. The Sepharose beads were mixed with SDS loading dye and Ctf4CTD interactions with the respective bait proteins were detected via SDS-PAGE.

## CIP-box of Sld5: isolated CIP-box of Sld5, affinity quoted from Simon et al., 2014 (MDINIDDILAELDKETTAVD; fluorescein label (N-terminal probable); the exact peptide limits are in Simon et al. 2014)
Ctf4 471-927 (Ctf4CTD) [1]
  Kd: 5 µM

## SHAKDVKIQETIRKLNRFKPT [Tof2 peptide]
Ctf4 471-927 (Ctf4CTD) [2]
  Kd (result in words): too weak to be quantified reliably
Ctf4 471-927 (Ctf4CTD) [2]; listed as Tof2
  Kd (result in words): not determinable
Ctf4 471–927; listed as Tof2 CIP
  direct binding to Ctf4 (in words): binds directly to Ctf4
Ctf4 471–927; listed as peptide containing the Tof2 CIP-box
  direct binding to Ctf4 (in words): could indeed bind directly to Ctf4 in vitro
Ctf4 471–927; hierarchy of affinities said to be reflected in native MS occupancy, Figures S3B and S4A, Simon et al., 2014
  hierarchy of affinities / occupancy of binding sites by CIP-box peptides: Sld5 > Pol1 > Dna2 > Tof2
Ctf4 471–927 (Ctf4CTD)
  pull-down of Ctf4 (in words): could indeed bind directly to Ctf4 in vitro
